How the values were obtained:
Assay type in all cases: in vivo
[1] = tested on: Spodoptera frugiperda; assay: Spodoptera frugiperda spray test (SPODFR), comparative; settings: 168 h, cotton leaves, after 7 days; for Emax at 0.8 ppm: read-out: % Efficacy
From the text: (§1) Spodoptera frugtiperda—Spray Test (SPODFR) Solvent: 14 parts by weight of dimethylformamide Emulsifier: alkylaryl polyglycol ether An appropriate active ingredient formulation is produced by dissolving 1 part by weight of active ingredient with the stated parts by weight of solvent and making the solution up to the desired concentration with water containing an emulsifier concentration of 1000 ppm. Further test concentrations are produced by diluting the formulation with emulsifier-containing water. If the addition of ammonium salts or/and penetrants is required, these are each added in a concentration of 1000 ppm to the formulation solution. Cotton leaves (Gossypium hirsutum) are sprayed with an active ingredient formulation of the desired concentration and populated with caterpillars of the armyworm (Spodoptera frugiperda). After 7 days, the kill in % is determined. 100% means that all caterpillars have been killed; 0% means that none of the caterpillars have been killed.

[2] = tested on: Plutella xylostella; assay: Plutella xylostella spray test (PLUTMA), comparative; settings: 168 h, cabbage leaves, after 7 days
From the text: Plutella xylostella Spray Test (PLUTMA) Solvent: 14 parts by weight of dimethylformamide Emulsifier: alkylaryl polyglycol ether An appropriate active ingredient formulation is produced by dissolving 1 part by weight of active ingredient with the stated parts by weight of solvent and making the solution up to the desired concentration with water containing an emulsifier concentration of 1000 ppm. Further test concentrations are produced by diluting the formulation with emulsifier-containing water. If the addition of ammonium salts or/and penetrants is required, these are each added in a concentration of 1000 ppm to the formulation solution. Cabbage leaves (Brassica oleracea) are sprayed with an active ingredient formulation of the desired concentration and infected with larvae of the diamondback moth (Plutella xylostella). After 7 days, the kill in % is determined. 100% means that all caterpillars have been killed; 0% means that none of the caterpillars have been killed.

[3] = tested on: Heliothis armigera; assay: Heliothis armigera spray test (HELIAR), comparative; settings: Helicoverpa armigera, 168 h, cotton plants, after 7 days
From the text: as §1, with “Heliothis Armigera Spray Test ([…])” for “Spodoptera frugtiperda—Spray Test (SPODFR)”, “Spray Test ([…]) Solvent: 14” for “frugtiperda—Spray Test (SPODFR) Solvent: 14”, “solution. Cotton plants (Gossypium hirsutum)” for “solution. Cotton leaves (Gossypium hirsutum)”, “desired concentration and, after drying, populated with” for “desired concentration and populated with”, “of the cotton bollworm (Heliothis armigera). After 7” for “of the armyworm (Spodoptera frugiperda). After 7”

[4] = tested on: Diabrotica balteata; assay: Diabrotica balteata spray test; settings: Diabrotica balteata, 168 h; 100 g/ha (=32 μg/cavity), wheat grains, after 7 days; read-out: efficacy
From the text: Diabrotica balteata—Spray Test Solvent: 78 parts by weight of acetone • • 1.5 parts by weight of dimethylformamide Emulsifier: alkylaryl polyglycol ether An appropriate active ingredient formulation is produced by dissolving 1 part by weight of active ingredient with the stated parts by weight of solvent and making the solution up to the desired concentration with water containing an emulsifier concentration of 1000 ppm. Further test concentrations are produced by diluting the formulation with emulsifier-containing water. Pre-swollen wheat grains (Triticum aestivum) are incubated in a multiwell plate filled with agar and a little water for one day (5 seed grains per cavity). The germinated wheat grains are sprayed with an active ingredient formulation of the desired concentration. Subsequently, each cavity is infected with 10-20 beetle larvae of Diabrotica balteata. After 7 days, efficacy in % is determined. 100% means that all wheat plants have grown as in the untreated, uninfected control; 0% means that no wheat plant has grown.

[5] = tested on: Nezara viridula; assay: Nezara viridula spray test (infected barley plants sprayed); settings: 100 g ai/ha, after 4 days
From the text: Nezara viridula—Spray Test Solvent: 52.5 parts by weight of acetone • 7 parts by weight of dimethylformamide Emulsifier: alkylaryl polyglycol ether An appropriate active ingredient formulation is produced by dissolving 1 part by weight of active ingredient with the stated parts by weight of solvent and making the solution up to the desired concentration with water containing an emulsifier concentration of 1000 ppm. Further test concentrations are produced by diluting the formulation with emulsifier-containing water. If the addition of ammonium salts or/and penetrants is required, these are each added in a concentration of 1000 ppm to the formulation solution. Barley plants (Hordeum vulgare) infected with larvae of the Southern green shield bug (Nezara viridula) are sprayed with an active ingredient formulation of the desired concentration. After 4 days, efficacy in % is determined. 100% means that all of the shield bugs have been killed; 0% means that none of the shield bugs have been killed.

[6] = tested on: Meloidogyne incognita; assay: Meloidogyne incognita test; settings: Meloidogyne incognita, 336 h, lettuce, gall formation after 14 days, read-out: nematicidal efficacy
From the text: Meloidogyne incognita Test Solvent: 125.0 parts by weight of acetone An appropriate active ingredient formulation is produced by mixing 1 part by weight of active ingredient with the stated amount of solvent and diluting the concentrate to the desired concentration with water. Vessels are filled with sand, active ingredient solution, an egg/larvae suspension of the southern root-knot nematode (Meloidogyne incognita) and lettuce seeds. The lettuce seeds germinate and the plants develop. The galls develop on the roots. After 14 days, the nematicidal efficacy in % is determined by the formation of galls. 100% means that no galls were found; 0% means that the number of galls on the treated plants corresponds to the untreated control.

[7] = tested on: Myzus persicae; assay: Myzus persicae spray test; settings: 20 ppm, bell pepper plants, after 6 days
From the text: Myzus persicae—Spray Test Solvent: 14 parts by weight of dimethylformamide Emulsifier: alkylaryl polyglycol ether An appropriate active ingredient formulation is produced by dissolving 1 part by weight of active ingredient with the stated parts by weight of solvent and making the solution up to the desired concentration with water containing an emulsifier concentration of 1000 ppm. Further test concentrations are produced by diluting the formulation with emulsifier-containing water. If the addition of ammonium salts or/and penetrants is required, these are each added in a concentration of 1000 ppm to the formulation solution. Bell pepper plants (Capsicum annuum) severely infested with the green peach aphid (Myzus persicae) are treated by spraying with the active ingredient formulation in the desired concentration. After 6 days, the kill rate in % is determined. 100% means that all of the aphids have been killed; 0% means that none of the aphids have been killed.

[8] = tested on: Spodoptera frugiperda; assay: Spodoptera frugiperda spray test (maize leaf discs); settings: Spodoptera frugiperda, foliar, 168 h, after 7 days, read-out: efficacy
From the text: Spodoptera Frusiperda—Spray Test Solvent: 78.0 parts by weight of acetone • • 1.5 parts by weight of dimethylformamide Emulsifier: alkylaryl polyglycol ether An appropriate active ingredient formulation is produced by dissolving 1 part by weight of active ingredient with the stated parts by weight of solvent and making the solution up to the desired concentration with water containing an emulsifier concentration of 1000 ppm. Further test concentrations are produced by diluting the formulation with emulsifier-containing water. Leaf discs of maize (Zea mays) are sprayed with an active ingredient formulation of the desired concentration and, after drying, populated with caterpillars of the fall armyworm (Spodoptera frugiperda). After 7 days, efficacy in % is determined. 100% means that all the caterpillars have been killed; 0% means that no caterpillar has been killed.

[9] = tested on: Ctenocephalides felis; assay: Ctenocephalides felis oral test; settings: 100 ppm, oral via cattle blood, after 2 days
Method: Ctenocephalides felis—Oral Test Solvent: dimethyl sulfoxide An appropriate active ingredient formulation is produced by mixing 10 mg of active ingredient with 0.5 ml of dimethyl sulfoxide. Dilution with citrated cattle blood gives the desired concentration. About 20 unfed adult cat fleas (Ctenocephalides felis) are placed into a chamber which is closed at the top and bottom with gauze. Onto the chamber is placed a metal cylinder with its bottom end closed with parafilm. The cylinder contains the blood/active ingredient formulation, which can be imbibed by the fleas through the parafilm membrane. The cylinder is heated to 37° C., while the flea chambers are kept at room temperature. After 2 days, the kill rate in % is determined relative to the untreated control. 100% means that all of the fleas have been killed; 0% means that none of the fleas have been killed.

[10] = tested on: Phaedon cochleariae; assay: Phaedon cochleariae spray test; settings: 100 g/ha, Chinese cabbage leaf discs, after 7 days
From the text: Phaedon cochleariae—Spray Test
Solvent: 78.0 parts by weight of acetone • • 1.5 parts by weight of dimethylformamide
Emulsifier: alkylaryl polyglycol ether
An appropriate active ingredient formulation is produced by dissolving 1 part by weight of active ingredient with the stated parts by weight of solvent and making the solution up to the desired concentration with water containing an emulsifier concentration of 1000 ppm. Further test concentrations are produced by diluting the formulation with emulsifier-containing water.
Discs of Chinese cabbage leaves (Brassica pekinensis) are sprayed with an active ingredient formulation of the desired concentration and, after drying, populated with larvae of the mustard beetle (Phaedon cochleariae).
After 7 days, efficacy in % is determined. 100% means that all the beetle larvae have been killed; 0% means that no beetle larvae have been killed.

[11] = tested on: Myzus persicae; assay: Myzus persicae oral test; settings: 4 ppm, after 5 days
Method: Myzus persicae—Oral Test Solvent: 100 parts by weight of acetone An appropriate active ingredient formulation is produced by dissolving 1 part by weight of active ingredient with the specified parts by weight of solvent and making the solution up to the desired concentration with water. 50 μl of the active ingredient formulation is transferred into microtitre plates and made up to a final volume of 200 μl with 150 μl of IPL41 insect medium (33%+15% sugar). Subsequently, the plates are sealed with parafilm, which a mixed population of green peach aphids (Myzus persicae) within a second microtitre plate is able to puncture and imbibe the solution. After 5 days, efficacy in % is determined. 100% means that all the aphids have been killed; 0% means that no aphids have been killed.

[12] = tested on: Diabrotica balteata; assay: Diabrotica balteata drench test; settings: 20 ppm, soil drench, maize, after 8 days
From the text: Diabrotica balteata—Drench Test Solvent: 7 parts by weight of dimethylformamide Emulsifier: 2 parts by weight of alkylaryl polyglycol ether An appropriate active ingredient formulation is produced by mixing 1 part by weight of active ingredient with the specified amounts of solvent and emulsifier, and diluting the concentrate to the desired concentration with water, it being necessary to take account of the volume of soil which is drenched. It should be ensured that a concentration of 40 ppm of emulsifier in the soil is not exceeded. Further test concentrations are produced by diluting with water. 5 […] (Zea mays) in each case are sown into pots filled with earth, and the next day the pots are watered with the active ingredient preparation of the desired concentration. After one day, about 25 L2 larvae of the banded cucumber beetle (Diabrotica balteata) are added. After 8 days, efficacy in % is determined. 100% means that all 5 plants have germinated and grown; 0% means that none of the plants has emerged.

[13] = tested on: Musca domestica; assay: Musca domestica test; settings: 100 ppm, adult houseflies, after 2 days
Method: Musca domestica Test Solvent: dimethyl sulfoxide An appropriate active ingredient formulation is produced by mixing 10 mg of active ingredient with 0.5 ml of dimethyl sulfoxide and diluting the concentrate with water to the desired concentration. Vessels containing a sponge treated with sugar solution and the desired concentration of active compound formulation are populated with 10 adult houseflies (Musca domestica). After 2 days, the kill rate in % is determined relative to the untreated control. 100% means that all of the flies have been killed; 0% means that none of the flies have been killed.

[14] = tested on: Lucilia cuprina; assay: Lucilia cuprina test; settings: 100 ppm, L1 larvae, after 2 days
Method: Lucilia cuprina Test Solvent: dimethyl sulfoxide An appropriate active ingredient formulation is produced by mixing 10 mg of active ingredient with 0.5 ml of dimethyl sulfoxide and diluting the concentrate with water to the desired concentration. About 20 L1 larvae of the Australian sheep blowfly (Lucilia cuprina) are transferred into a test vessel containing minced horsemeat and the active ingredient formulation of the desired concentration. After 2 days, the kill rate in % is determined relative to the untreated control. 100% means that all the larvae have been killed; 0% means that no larvae have been killed.

**Q.** Which Emax at 0.8 ppm [1] does the source give for Cn1c(-c2nc(-n3ncn(-c4ccc(Cl)cc4)c3=O)ccc2CS(C)(=O)=O)nc2cc(C(F)(F)F)cnc21 [I-33 known from WO 2017/055185, reference compound] here?
**A.** The Emax at 0.8 ppm was 0%.

**Q.** What about the efficacy at 0.16 ppm ([2]; 0.16 ppm) of the same molecule?
**A.** Its efficacy at 0.16 ppm is 15%.

**Q.** What does the source list for CCS(=O)(=O)c1ccc(-n2ncn(-c3ccc(Br)cc3)c2=O)nc1-c1nc2cc(C(F)(F)F)ccc2n1C [I-16 known from WO 2017/055185, reference compound]?
**A.** Emax at 0.8 ppm ([3]; 0.8 ppm, read-out: % Efficacy): 20%; Emax at 4 ppm ([3]; 4 ppm, read-out: % Efficacy): 60%; Emax at 0.8 ppm [1]: 10%; efficacy at 0.8 ppm [2]: 85%

**Q.** What does the source list for CCS(=O)(=O)c1ccc(-n2ncn(-c3cccc(F)c3)c2=O)nc1-c1nc2cc(C(F)(F)C(F)(F)F)nnc2n1C [Example I-12]?
**A.** pest or weed control at 100 g/ha [4]: 100%; efficacy [5]: 100%; pest or weed control at 20 ppm [6]: 100%; efficacy (kill rate) [7]: 98%; pest or weed control at 100 g/ha [8]: 100%

**Q.** What does the source list for CCS(=O)(=O)c1ccc(-n2ncn(-c3ccc(Br)cc3)c2=O)nc1-c1nc2cc(C(F)(F)C(F)(F)F)nnc2n1C [Example I-14]?
**A.** percent efficacy (kill) at fixed dose at 0.8 ppm ([3]; 0.8 ppm): 100%; percent efficacy (kill) at fixed dose at 4 ppm ([3]; 4 ppm): 100%; pest or weed control at 100 g/ha [4]: 100%; pest or weed control at 20 ppm [6]: 100%; percent efficacy at tested dose at 0.8 ppm [1]: 100%; pest or weed control at 100 g/ha [8]: 100%; efficacy at 0.8 ppm [2]: 100%

**Q.** Which results are given for CCS(=O)(=O)c1ccc(-n2ncn(-c3ccc(Cl)cc3)c2=O)nc1-c1nc2cc(C(F)(F)C(F)(F)F)nnc2n1C [Example I-22]?
**A.** efficacy (kill rate) [9]: 100%; efficacy [10]: 100%; efficacy [11]: 100%; efficacy [12]: 100%; efficacy [5]: 90%; efficacy (kill rate) [13]: 100%; efficacy (kill rate) [14]: 100%; pest or weed control at 100 g/ha [8]: 100%
